# Experimental data: patent US20260315462A1, “METHODS OF TREATING RELAPSING MULTIPLE SCLEROSIS USING AN INHIBITOR OF BRUTON'S TYROSINE KINASE” (Genentech, Inc., priority 2023, published 2026)
# Where two headings read alike, the source gives them in different places.
# Columns and labels:
# [1] = test system: new gadolinium-enhancing T1 (T1Gd+) lesions on brain MRI; test: New gadolinium-enhancing T1 (T1Gd+) lesions on brain MRI, Phase II RMS study (primary endpoint); format: in vivo, human
# Text: This Phase II study was undertaken to evaluate the effect of fenebrutinib on brain magnetic resonance imaging (MRI) in participants with RMS. Participants were randomized to receive either fenebrutinib or placebo. In addition to MRI evaluations, participants were also monitored for other clinical outcomes of disease, including disability progression and MS relapse, as described more fully below.
# (§1) Study Design: This clinical trial comprised a double-blind treatment (DBT) phase, where participants were randomized in a 2:1 ratio to receive either 200 mg BID oral fenebrutinib or non-active placebo, administered for 12 weeks. Participants were directed to self-administer two 100 mg tablets in the morning and two 100 mg tablets in the evening by mouth, for a total dose of 400 mg of fenebrutinib (or placebo) every day.
# (§2) A total of 109 adults aged 18-55 with RMS were enrolled in the study: 73 in the fenebrutinib arm, and 36 in the placebo arm. […] Accordingly, the analysis of outcome for the double blind phase of the study included 70 patients in the fenebrutinib arm, and 36 patients in the placebo arm.
# MRI Measurements: The primary efficacy endpoint for this study was the total number of new gadolinium-enhancing T1 (T1Gd+) lesions on brain MRI measured at Weeks 4, 8, and 12 of administration. The secondary efficacy outcomes were (1) the total number of new or enlarging T2-weighted lesions on brain MRI measured at Weeks 4, 8, and 12, and (2) the proportion of participants free from any new Gd-enhancing T1 lesions and new or enlarging T2-weighted lesions observed on brain MRI at Weeks 4, 8, and 12. Radiologic evaluation for the primary efficacy parameter was performed using a standardized MRI protocol at screening, and at Weeks 4, 8, and 12 for each participant. […]
# Results: Primary Endpoint (Total Number of New T1 Gd+ Lesions at Weeks 4, 8, and 12, combined): The primary endpoint of this study was met. In the treatment arm (n=70), a 69% relative reduction in new T1 Gd+ lesions was observed, compared to placebo, with a p value of 0.0022. FIG. 2 provides bar graphs illustrating some of the data in these tables, and providing additional analyses. In this figure, the large arrows indicate the relative reduction (95% confidence interval) of lesions. The proportion of patients with new T1 Gd+ lesions is the number of participants that have a new lesion at that specific visit alone divided by the number of participants with a scan at that specific visit alone at the indicated week. […] There was a 90% reduction and only 3.2% of patients with new T1 Gd+ Lesions lesions at Week 12.
# [2] = Fenebrutinib concentration in CSF and plasma after 12 weeks of continuous administration (exploratory endpoint); format: in vivo, human
# Text: Exploratory Endpoints: Exploratory endpoints included the total number of new T1-hypointense lesions on MRI at weeks 4, 8, and 12; the fenebrutinib concentration in CSF collected at baseline and at or after Week 12; and plasma pharmacokinetics.
# Results: Exploratory Endpoint-Evaluation of CSF: Cerebrospinal samples (CSF) were taken from 11 patients following 12 weeks of continuous fenebrutinib administration. A blood plasma sample was taken at the same time for 4 of the 11 patients. The concentration of fenebrutinib in CSF at 12 Weeks was evaluated, and presented in FIG. 5 in comparison to the IC50 of fenebrutinib (active inhibitory threshold) and the IC90 of fenebrutinib (maximal inhibitory threshold) as evaluated in different in vitro assays. From the figure, (a) the mean fenebrutinib CSF concentration is following 12 weeks of continuous fenebrutinib administration; (1) the data for CD63 and CD69 assays was previously presented as Weber M S, et al. at AAN 2021 Virtual Annual Meeting, April 17-22. (P15.091); and (2) the data for the phospho-BTK assay was previously presented in Keaney J, et al. J Neuroimmune Pharmacol 2019; 14:448-461. Analysis of fenebrutinib concentration in CSF, plasma, and the ratio for the four patients for which a plasma sample was taken is provided in Table 11.
# CD63 is a myeloid lineage cell activation marker; CD69 is a B-cell activation marker; the phospho-BTK assay evaluates target engagement through inhibition of anti-IgM induced BTK Y223 autophosphorylation in human whole blood. Procedures for performing these three assays may be found in Crawford J J, et al. J Med Chem 2018; 6:2227-2245. Fenebrutinib has a dual mechanism of action, inhibiting both B-cell and myeloid lineage cell activation.
# [3] = Safety: adverse events in Phase II RMS study; format: in vivo, human; settings: for Patients with ≥1 AE, %: 200 mg BID oral, 12 weeks, placebo 33.3
# Method: as §1, §2
# Results—Safety Summary: A summary of adverse events (AEs) for patients treated with fenebrutinib, and with placebo, is provided in Table 12.
# [4] = test system: CD69 expression on B cells; settings: in vitro human whole blood assay; previously presented Weber M S, et al. AAN 2021; cited from earlier work
# [5] = test system: CD63 expression on myeloid lineage cells (basophils); settings: in vitro human whole blood assay; previously presented Weber M S, et al. AAN 2021; cited from earlier work
# BTK = settings: anti-IgM induced BTK Y223 autophosphorylation in human whole blood; previously presented Keaney J, et al. 2019; cited from earlier work
# [6] = test system: inflammatory cytokine production from myeloid cells (including TNF-α); settings: in vitro cell-based experiments; cited from earlier work
# [7] = most common AEs, n = 73, placebo 0
# [8] = most common AEs, n = 73, placebo 2.8
smiles,measurement,setting,value
"C[C@H]1CN(C2COC2)CCN1c1ccc(Nc2cc(-c3ccnc(N4CCn5c(cc6c5CC(C)(C)C6)C4=O)c3CO)cn(C)c2=O)nc1 [Fenebrutinib, (S)-2-(3′-(hydroxymethyl)-1-methyl-5-((5-(2-methyl-4-(oxetan-3-yl)piperazin-1-yl)pyridin-2-yl)amino)-6-oxo-1,6-dihydro-[3,4′-bipyridin]-2′-yl)-7,7-dimethyl-2,3,4,6,7,8-hexahydro-1H-cyclopenta[4,5]pyrrolo[1,2-a]pyrazin-1-one]","Number of New T1 Gd+ Lesions, Mean (SD), Week 4","[1]; 200 mg BID oral, Week 4, n = 70, min-max 0-4, placebo 0.389 (0.871)",0.343 (0.849)
same,"Number of New T1 Gd+ Lesions, Mean (SD), Week 8","[1]; 200 mg BID oral, Week 8, n = 67, min-max 0-3, placebo 0.441 (0.960)",0.045 (0.367)
same,"Number of New T1 Gd+ Lesions, Mean (SD), Week 12","[1]; 200 mg BID oral, Week 12, n = 63, min-max 0-1, placebo 0.273 (0.674)",0.032 (0.177)
same,Total Number of New T1Gd+ Lesions,"[1]; 200 mg BID oral, Weeks 4, 8, and 12 combined, N = 70, 201 scans, placebo 38",29
same,"New T1Gd+ Lesion rate, adjusted","[1]; 200 mg BID oral, Weeks 4, 8, and 12 combined, Negative Binomial regression model, placebo 0.245",0.077
same,"New T1Gd+ Lesion rate, unadjusted","[1]; 200 mg BID oral, Weeks 4, 8, and 12 combined, total lesions divided by total number of scans, placebo 0.369",0.144
same,"proportion of patients with new T1 Gd+ lesions, Week 12","[1]; Week 12, participants with a new lesion at that visit divided by participants with a scan at that visit",3.2%
same,patients with new T1 Gd+ lesions after week four,[1]; after week four of treatment,Few patients had new lesions after week four of treatment
same,"Relative Reduction of total number of new T1 Gd+ lesions, Week 4","[1]; vs placebo, Week 4, 95% CI −92%, 68%",22%
same,"Relative Reduction of total number of new T1 Gd+ lesions, Week 8","[1]; vs placebo, Week 8, 95% CI 65%, 98%",92%
same,"Relative Reduction of total number of new T1 Gd+ lesions, Week 12","[1]; vs placebo, Week 12, 95% CI 52%, 98%",90%
same,"Rate Ratio, adjusted (new T1Gd+ lesions)","[1]; vs placebo, Weeks 4, 8, and 12 combined, 95% CI (0.149, 0.658)",0.313
same,Relative Reduction in new T1 Gd+ lesions,"[1]; vs placebo, Weeks 4, 8, and 12 combined, 95% CI (34%, 85%), p-value 0.0022",69%
same,"Relative Reduction of total number of new T1 Gd+ lesions, Weeks 8 and 12","[1]; vs placebo, Weeks 8 and 12",92%
same,presence in CSF relative to in vitro activity,[2]; after 12 weeks of continuous administration,present in the CSF at levels sufficient to reduce activation of B cells and microglia progenitor cells in vitro
same,concentration at 2016 h,"[2]; human, csf, po, 200 mg, 11 patients, following 12 weeks of continuous administration, read-out: mean fenebrutinib CSF concentration",43.1 ng/mL
same,concentration at 2016 h,"[2]; human, csf, po, 200 mg, n = 4 patients, after 12 weeks of continuous administration, 200 mg BID oral, read-out: CSF concentration, Median (min, max)",50.2 ng/mL
same,Kp at 2016 h,"[2]; human, csf, po, 200 mg, n = 4 patients, after 12 weeks of continuous administration, total plasma, read-out: CSF:plasma ratio, Median (min, max)",0.061
same,concentration at 2016 h,"[2]; human, plasma, po, 200 mg, n = 4 patients, after 12 weeks of continuous administration, 200 mg BID oral, read-out: Total plasma concentration, Median (min, max)",691 ng/mL
same,"Patients with ≥1 AE, %",[3]; n = 73,38.4%
same,"Patients with ≥1 AE, %","[3]; n = 73, listed as FEN",38%
same,withdrawal: abnormal hepatic transaminase levels,[3]; discontinuation required by protocol,4
same,AE grade,[3]; double-blind treatment phase,"All AEs were Grade 1 or 2, except for two Grade 3 asymptomatic liver transaminase level elevations"
same,AEs leading to withdrawal from the study,[3]; double-blind treatment phase,four AEs leading to withdrawal from the study
same,serious AEs or deaths,[3]; double-blind treatment phase,No SAEs were reported
same,serious AEs or deaths,"[3]; double-blind treatment phase, listed as FEN",No serious AEs or deaths were reported
same,rate of infections,[3]; fenebrutinib vs placebo arms,balanced between the fenebrutinib and placebo arms
same,"hepatic transaminase level elevations, character",[3]; fenebrutinib-treated patients,reversible and asymptomatic
same,withdrawal: hypersensitivity,[3]; in vivo,1
same,withdrawal: upper abdominal pain,[3]; in vivo,1
same,withdrawal: upper abdominal pain; nausea and headache,[3]; in vivo,1
same,"Abnormal hepatic enzyme levels, %",[3]; [7],5.5%
same,"Nasopharyngitis, %",[3]; [7],2.7%
same,"Upper abdominal pain, %",[3]; [7],2.7%
same,"Headache, %",[3]; [8],4.1%
same,"Nausea, %",[3]; [8],2.7%
same,"Pharyngitis, %",[3]; [8],2.7%
same,"Urinary tract infection, %","[3]; most common AEs, n = 73, placebo 5.6",5.5%
same,"Patients with ≥1 AE leading to dose interruption, n (%)",[3]; n = 73,0
same,"Patients with ≥1 AE with fatal outcome, n (%)",[3]; n = 73,0
same,"Patients with ≥1 SAE, n (%)",[3]; n = 73,0
same,"Patients with ≥1 Grade 3 AE, %","[3]; n = 73, placebo 0",2.7%
same,"Patients withdrawn from study due to an AE, %","[3]; n = 73, placebo 0",9.6%
same,"Patients with ≥1 Related AE, %","[3]; n = 73, placebo 5.6",13.7%
same,Total no. of AEs,"[3]; n = 73, placebo 19",40
same,"IC90, CD69 (B-cell activation marker)",[4],0.0432 µg/mL
same,"IC90, CD63 (myeloid lineage cell activation marker)",[5],0.0412 µg/mL
same,"IC90, phospho-BTK",BTK,0.0404 µg/mL
same,inflammatory cytokine production from myeloid cells,[6],reduction of inflammatory cytokine production from myeloid cells
